{
  "source": "patent US7544497B2",
  "about": "“Compositions for manipulating the lifespan and stress response of cells and organisms” (President and Fellows of Harvard College, priority 2003, dated 2009)",
  "target": "T1, recombinant dSir2 (Drosophila melanogaster, UniProt Q9VK34)",
  "T1 sequence (Q9VK34 1-823)": "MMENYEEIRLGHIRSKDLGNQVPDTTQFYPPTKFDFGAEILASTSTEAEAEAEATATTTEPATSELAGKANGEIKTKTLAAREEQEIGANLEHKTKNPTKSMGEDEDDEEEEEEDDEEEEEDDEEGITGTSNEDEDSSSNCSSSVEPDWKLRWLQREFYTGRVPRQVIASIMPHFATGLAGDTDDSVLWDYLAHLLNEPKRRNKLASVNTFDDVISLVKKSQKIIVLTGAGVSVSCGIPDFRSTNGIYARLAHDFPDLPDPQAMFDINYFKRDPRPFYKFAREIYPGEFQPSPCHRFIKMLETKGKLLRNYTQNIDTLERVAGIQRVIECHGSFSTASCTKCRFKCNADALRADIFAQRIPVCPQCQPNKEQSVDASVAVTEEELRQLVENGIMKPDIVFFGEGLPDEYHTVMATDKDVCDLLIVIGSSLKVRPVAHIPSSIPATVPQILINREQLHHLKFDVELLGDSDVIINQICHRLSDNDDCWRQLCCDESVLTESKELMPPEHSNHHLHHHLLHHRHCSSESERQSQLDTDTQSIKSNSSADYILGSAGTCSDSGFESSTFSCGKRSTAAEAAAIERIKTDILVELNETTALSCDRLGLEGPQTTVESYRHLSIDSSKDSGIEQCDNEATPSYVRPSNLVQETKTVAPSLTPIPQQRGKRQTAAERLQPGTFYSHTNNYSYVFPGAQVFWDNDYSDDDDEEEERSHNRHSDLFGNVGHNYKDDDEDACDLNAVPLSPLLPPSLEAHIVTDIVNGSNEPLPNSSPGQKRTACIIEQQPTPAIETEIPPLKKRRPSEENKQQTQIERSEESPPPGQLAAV",
  "test": "dSir2 deacetylation assay (Fluor de Lys)",
  "type": "biochemical, D. melanogaster",
  "conditions": "dose-dependent; 25 μM NAD+, 10 μM FdL",
  "method": "His6-tagged recombinant SIR-2.1 and dSir2 were purified from E. coli BL21(DE3) plysS cells harboring either pET28a-sir-2.1 or pRSETc-dSir2 plasmids. Cells were grown in LB medium containing kanamycin (50 μg/mL) for pET28a-sir-2.1 or ampicillin (100 μg/ml) and chloramphenicol (25 μg/ml) for pRSETc-dSir2 at 30° C. (dSir2) or 37° C. (SIR-2.1) to an OD600 of 0.6-0.8.\nFrom 0.1 to 1 μg of SIR-2.1 and 1 μg of dSir2 were used per deacetylation assay as previously described with modifications (SIR-2.1: 200 μM NAD^+, 10 μM Fluor de Lys, FdL; dSir2: 25 μM NAD^+, 10 μM FdL)^26. […] Drosophila S2 cells were grown in Schneider media with fetal calf serum at 23-28° C., seeded at 9×10^4 cells/well, grown overnight and then exposed to 1 μM TSA, 500 μM polyphenols, and 200 μM FdL for 2 hr. […] Unless otherwise indicated all initial rate measurements were means of three or more replicates obtained with single incubation times, at which point 5% or less of the substrate initially present was deacetylated.",
  "data": [
    {"molecule": "Oc1ccc(/C=C/c2cc(O)cc(O)c2)cc1", "note": "[Resveratrol, 3,5,4′-Trihydroxy-trans-stilbene]", "values": [
      {"measurement": "stimulation of deacetylation, dSir2 (up to)", "value": "≤ 2.4", "unit": "fold"}
    ]}
  ]
}
